Values quoted from earlier work in US12378579B2, “Method to produce the anti-microbial diterpenoid leubethanol and related serrulatane-type diterpenes” (priority 2020, dated 2025).

Test system: multi-drug-resistant tuberculosis
Conditions: pure compound from Leucophyllum frutescens; background statement

In the case of `CC(C)=CCC[C@H](C)[C@@H]1CC[C@@H](C)c2c(O)cc(C)cc21` [leubethanol], the “activity against multi-drug resistant tuberculosis” value is listed as “demonstrated activity”.
